According to US4909257A, “Method for attaining in vivo tissue-specific contrast by nuclear magnetic resonance imaging” (priority 1989, dated 1990):

Tests used:
normal BALB/C mice = assay: Toxicity (acute lethality) after i.v. tail vein injection in mice; format: in vivo; conditions: 0.2 mL, five BALB/C mice per dose group, 7 days
Description: Solutions were prepared to evaluate the toxicity of the chelators and ferric complexes of the chelators.
A 1.2 M stock ferric solution was prepared by dissolving 32 g of FeCl3 * 6 H2 O in 100 mL of 0.1 N HCl. It was standardized by EDTA titration using Variamine Blue B indicator.
A solution or suspension of 10 mmoles of each ligand in 20 mL of water was 70-80% neutralized by reaction with NaOH. The resulting solution (pH~9) was added dropwise to a solution of 10.1 mmoles of FeCl3 in 10 mL of water. The reaction mixture was adjusted to pH 7.0 with solid NaHCO3 and stirred at 60°-80° C. for two hours. It then was ccentrifuged, and the supernatant was filtered through a 0.22 micron filter. […] Th filtrate was concentrated on a rotary evaporator, the pH adjusted to 7.0, and the volume adjusted to 20 mL.
Tiron was obtained as the sodium salt. An aqueous 0.5 M solution was treated with a 2% excess of FeCl3, and the reaction mixture was worked up as above.
A suspension of 3.6 g (10 mmoles) of EHPG in 15 mL of water was reacted with 17 mL of 2 N NaOH. The resulting dark yellow-orange solution was added dropwise to a solution of 2.7 g […] of FeCl3 * 6 H2 O in 10 mL of water. The reaction mixture was warmed to 60°-80° C. and held at that temperature for 2 hours. The thick orange-red suspension was diluted to 120 mL and heated to 90°-100° C. The hot suspension was filtered through filter aid, and the filtrate was allowed to cool to room temperature.
Rather than crystallizing the product, the pH of the reaction mixture was adjusted to 7.0 with NaHCO3 and filtered. The filtrate was used for subsequent experiments after appropriate volume adjustments and Fe determination.
For each compound at each dose, five normal BALB/C mice weighing 19-22 g were treated with test solution by injection into the tail vein. The injection volumes were approximately 0.2 mL. The behavior and condition of the mice were monitored for 1 week.

[1] = Magnetic resonance imaging contrast enhancement (2 Tesla, coronal spin echo); format: in vivo, BALB/C mice; conditions: for MRI: increase in signal intensity in the gall bladder: in contrast to Fe-EHPG and Fe-HBED; for MRI: urinary bladder concentration: mouse, in vivo
Description: Imaging tests were performed on a General Electric CSI-II 2 Tesla (85.6 MHz proton resonant frequency) chemical shift imaging-spectrometer (GE Medical Systems,Inc., Fremont, CA). A standard 2-Dimensional Fourier Transform (2DFT) spin warp sequence with 2 mm slice thickness and 128 phase-encodingcycles by 512 complex (quadrature detected) data points was used. These were transposed to 512×512 image output pixels (256 level gray scale) over a 140×150 field of view. Coronal spin echo images were obtained using a TR of 300 msec, a TE of 14 msec, and averaging four acquisitions per cycle. The RF coil used was a homebuilt distributed capacitance (low-pass birdcage) design coupled to balanced-matched RF input circuitry.
Experiments were typically run simultaneously on two 20 g BALB/C mice. These were anesthetized i.p. with ketamine, and a 27 G catheter was inserted into the tail vein and connected to a 0.5 cc syringe containing contrast agent. The mice were placed side-by-side and supine in a holder within the RF coil, and a precontrast image was obtained. Contrast agent then was administered, and then post contrast images were obtained in registration at designated time intervals.

[2] = Dose needed for NMR contrast enhancement; format: in vivo; conditions: doses as low as
[3] = Organ distribution and clearance of 59Fe-labeled complexes; format: in vivo, BALB/C mice
Description: ^59 Fe was obtained as 0.06 M FeCl3 in 0.5 N HCl; the specific activity was approximately 20 mCi/mmole (1.2 mCi/mL). Labeled commplexes were preared by treating in a Teflon vial 10 uL of ^59 FeCl3 with 25 uL of 2.0×10^-2 M solution of ligand, followed by 0.25 mL of 0.36 M, pH 7.3 Na HEPES buffer and 0.74 mL of water. The reaction mixture was held at 80° C. for 2 hours and then treated with 0.2 mL of 0.12 M solution of Fe-ligand complex. The resulting solution was filtered through a 0.22 u filter. A 0.2 mL dose contained 0.004 mmole of Fe-chelate with 2 uCi of ^59 Fe. ^59 Fe acetate was prepared as above, but without addition of unlabeled carrier Fe acetate.
For each complex shown in FIG. 1, a group of five BALB/C mice were treated as above with 0.2 mmole/Kg of labeled Fe-complex containing approximately 2 uCi of ^59 Fe. The animals were counted immediately after injection and at 2 hours, 1, 2, 4, and 7 days. Whole body counts were obtained using a Nuclear Chicago Tobor chamber gamma counter. Raw counts were background-subtracted and back-decayed to t0, the time of injection. An ^59 Fe standard and background were counted at each time point.
After the appropriate time period, the animals were sacrificed and dissected. Organ weights were measured, and the organs were counted in a gamma counter. Due to its small size, the gall bladder was combined with the small intestine for weighing and counting. An ^59 Fe standard was also counted at each time point. Raw counts were background-subtracted and back-decayed to t0, the time of injection. Activity was computed as a fraction of injected dose per gram of tissue.

Molecule	LD-0 (maximum dose at which no mortality was observed for seven days post injection) (normal BALB/C mice) [mmol/kg]	LD-100 (minimum dose for which 100% mortality was observed for seven days post injection) (normal BALB/C mice) [mmol/kg]	MRI: increase in signal intensity in the gall bladder [1]	MRI: urinary bladder concentration [1]	other results
O=C(O)CN(CC(=O)O)[C@@H]1CCCC[C@H]1N(CC(=O)O)CC(=O)O (relative stereo) [CDTA, trans-1,2-cyclohexanediaminotetraacetic acid]	0.05	0.5	–	–	–
CC(=O)N(O)CCCCCNC(=O)CCC(=O)N(O)CCCCCNC(=O)CCC(=O)N(O)CCCCCN [DF, Desferrioxamine B]	0.5	1	–	–	–
CC(=O)N([O-])CCCCCNC(=O)CCC(=O)N([O-])CCCCCNC(=O)CCC(=O)N([O-])CCCCCN.[Fe+3] [Fe--DF]	0.5	2	essentially none in the gall bladder	concentrated in the urinary bladder	–
O=C([O-])C(NCCNC(C(=O)[O-])c1ccccc1[O-])c1ccccc1[O-].[Fe+3] (stereo not drawn) [Fe--EHPG]	0.9	–	–	concentrated in the urinary bladder	MRI: gall bladder contrast at 50 minutes ([1]; 50 minutes post-contrast): gall bladder contrast remains markedly high; MRI: liver intensity at 50 minutes ([1]; 50 minutes post-contrast): liver intensity has decreased; MRI: gall bladder enhancement, later ([1]; gradual, post-contrast): gradually becomes brighter than the surrounding liver; MRI: liver enhancement ([1]; post-contrast, initial): first concentrate in the liver; MRI: gall bladder enhancement, initial ([1]; while agent first concentrates in the liver): gall bladder remains unenhanced; lowest dose achieving NMR contrast enhancement [2]: 1 mg contrast agent per kilogram weight of the animal; liver level of 59Fe over time ([3]; 0.2 mmole/Kg labeled Fe-complex, fraction of injected dose per gram of tissue, FIGS. 2 and 3): initially high and then decreased; large intestine levels at 6 hours ([3]; gut tissue and contents, final time of 6 hours): exceeded all of the other values; large intestine levels, up to the 2 hour time point ([3]; gut tissue and contents, up to 2 hours): started and remained lower than the liver or small intestine values; small intestine values over time ([3]; small intestine combined with gall bladder, out to 6 hours): initially low, rose to a maximum at about 1-2 hours, and then decreased out to 6 hours; time of maximum small intestine value ([3]; small intestine combined with gall bladder, printed as about): 1 to 2 h
O=C([O-])CN(CCO)CCN(CC(=O)[O-])CC(=O)[O-].[Fe+3] [Fe--HEDTA]	–	0.5	–	–	–
GD-DTPA [reference compound]	–	–	essentially none in the gall bladder	concentrated in the urinary bladder	–
